The test system of one series is MDA-MB-435 tumor. Description: Small-animal PET of MDA-MB-435 tumor-bearing mice. To be noted: female, athymic nude, mouse, in vivo, iv.
Series [1] is described as follows: in vivo. Set-up: species or system mice. To be noted: female, BALB/c, mouse, iv, 3.7 MBq, total radioactivity. How it is done: The 4T1 murine breast cancer cell line was purchased from American Type Culture Collection and grown in RMPI 1640 medium (Invitrogen Corp.) supplemented with 10% (v/v) fetal bovine serum (Invitrogen) at 37° C. with 5% CO2. The 4T1 tumor model was generated by subcutaneous injection of 5×10^6 tumor cells into the left front flank of female normal BALB/c mice (Harlan).
Five-minute static PET images were then acquired at 2 h after injection (n=3/group).

A short description of series [2]: in vivo. Set-up: species or system mice. Conditions: BALB/c, mouse, iv, 370 kBq, total radioactivity, pancreatic uptake. How it is done:
All mice were sacrificed at 1 h after injection of the tracer. Blood, tumor, and major organs and tissues were collected and wet-weighed. Stomach and intestines were cleaned of their contents in this experiment. The radioactivity in the tissue was measured using a g-counter (Packard). The results were presented as percentage injected dose per gram of tissue (% ID/g). Values were expressed as mean 6 SD (n=4/group).

Procedure for MDA-MB-435 tumor: The MDA-MB435 tumor model was established by orthotopic injections of 5×10^6 cells into the right mammary fat pad of female athymic nude mice. […] The mice were subjected to microPET studies when the tumor volume reached 100-300 mm^3 (2-3 weeks for MDA-MB-435, and 4-5 wk for T47D).
For static PET, 5-min scans were acquired at 30 min, 1 h, and 2 h after injection. For dynamic PET, 30-min scans (1×30 s, 4×1 min, 1×1.5 min, 4×2 min, 5×3 min; total 15 frames) were started 1 min after injection, and two 5-min static PET images were also acquired at 1 h and 2 h after injection. The images were reconstructed using a two-dimensional ordered subsets expectation maximum (OSEM) algorithm and no correction was applied for attenuation or scatter. […] For each small-animal PET scan, regions of interest (ROIs) were drawn over the tumor, normal tissue, and major organs using vendor software ASI Pro 5.2.4.0 on decay-corrected whole-body coronal images. The maximum radioactivity concentrations (accumulation) within a tumor or an organ were obtained from mean pixel values within the multiple ROI volume, and were converted to megabecquerels per milliliter per minute using a conversion factor. These values were then divided by the administered activity to obtain (assuming a tissue density of 1 g/ml) an image ROI-derived percent injected dose per gram (% ID/g).
Quantification of tumor and major organ activity accumulation in the microPET scans was realized by measuring the regions of interest (ROIs) that encompassing the entire organ on the coronal images.

For orientation: tissue uptake means the share of the injected amount in each gram of the tissue. For the compound `CSCC[C@H](NC(=O)[C@H](CC(C)C)NC(=O)[C@H](Cc1c[nH]cn1)NC(=O)CNC(=O)[C@@H](NC(=O)[C@H](C)NC(=O)[C@H](Cc1c[nH]c2ccccc12)NC(=O)[C@H](CCC(N)=O)NC(=O)CCCCCNC(=O)CC[C@H](NC(=S)Nc1ccc(C[C@H]2CN(CC(=O)O)CCN(CC(=O)O)CCN2CC(=O)O)cc1)C(=O)NCCCC[C@@H]1NC(=O)[C@@H](Cc2ccc(O)cc2)NC(=O)[C@H](CC(=O)O)NC(=O)CNC(=O)[C@H](CCCNC(=N)N)NC1=O)C(C)C)C(N)=O` [^64Cu-NOTA-RGD-BBN, metal not drawn], the MDA-MB-435 tumor uptake is on record as 1.84 ± 0.44 % ID/g in the series on MDA-MB-435 tumor (1 h) and 1.47 ± 0.19 % ID/g with MDA-MB-435 tumor (2 h). Further, the tissue uptake at 2 h in the series “in vivo [1]” worked out at 1.88 ± 0.28 %ID/g. Also, the tissue uptake at 1 h in the series “in vivo [2]” is 7.03 ± 1.96 %ID/g.

For the origin of these results see patent US20100015058A1, “RADIOLABELED BBN-RGD HETERODIMERS FOR CANCER TARGETING” (STANFORD UNIVERSITY, priority 2008, published 2010).
